{"source": "paper PMC3985299", "about": "“Single Ascending Dose Safety and Pharmacokinetics of CDRI-97/78: First-in-Human Study of a Novel Antimalarial Drug” (Malaria Research and Treatment, 2014)", "test_system": "healthy human volunteers", "test": "Single ascending dose study: biochemical parameters (liver function tests, serum electrolytes)", "format": "in vivo", "parameters": "Total serum bilirubin / Serum SGOT / Serum SGPT: unit not given here", "description": "The study was approved by the Institute's Ethics Committee. The single ascending dose study and the pharmacokinetic study are registered with Central Trial Registry of India (CTRI/2012/07/002812; CTRI/2012/07/002832). Normal healthy male volunteers in the age group of 18–45 years were invited to join the trial. A detailed informed consent process of the volunteers was undertaken and screening of the volunteers was done after obtaining informed consent. They were recruited through contacts and hospital employees were excluded. The health status of the volunteers was determined by taking medical history, physical examination, routine haematology (haemoglobin, total lymphocyte count, differential count, and platelet count), clinical biochemistry (serum glutamic oxaloacetic transaminase (SGOT), serum glutamic pyruvic transaminase (SGPT), serum bilirubin, serum creatinine, blood urea, serum electrolytes, random blood sugar, total protein, and serum lipid profile), and urine and stool analysis (routine examination and microscopy). The volunteers were asked to report to the study site after 12 hours of fasting for the blood tests. Chest X-ray and 12-lead ECG were also taken. The participants were also screened for human immunodeficiency virus (HIV) and hepatitis B. The volunteers after giving informed consent were screened. The screening process was done latest within 1 month of admission for dosing. The volunteers who fulfilled the inclusion/exclusion criteria were admitted in the CPU the night before drug administration. Standardized dinner was served at 9 pm the night prior to dosing. On day 0, baseline blood sample for biochemical and haematological examination and stool and urine samples for routine and microscopy were taken. They received the study drug, according to the randomization sequence, under supervision. The empty packaging was returned to the container. The volunteers received drug as per randomization. Breakfast was given half an hour after drug administration. Subsequently, standardized lunch and dinner were served to the volunteers. The subjects were attached to a cardiac monitor and vital HR, BP, ECG, oxygen saturation, and RR were recorded. Corrected QT interval using Fridericia's formula was calculated. Adverse events were assessed at specific time points (0.5, 1, 2, 4, 6, 8, 12, and 24 hrs after medication). Unscheduled monitoring was undertaken whenever it felt necessary. The volunteers were discharged after 24 hrs and they had to return at 48 hrs and on the 7th day for follow-up. At the end of the 7th day, they were said to have completed the study. Routine haematological and biochemical investigations were performed at 0 hr, 24 hrs after drug administration, and on day 7. The study was monitored by a Data Safety Monitoring Board."}
{"smiles": "C=C(c1ccc(OC(C)(C)COC(=O)CCC(=O)O)cc1)C1COC2(OO1)C1CC3CC(C1)CC2C3", "note": "(centres unmarked) [CDRI 97/78, Mono[2methyl2[3(1spiro[tricycle[3.3.1.13,7]decane2,3′-[1,2,4]trioxan] 6′-ylethenyl)phenoxy]propyl] ester]", "values": [{"measurement": "Serum Alkaline phosphatase", "setting": "80 mg (n = 6), 24 hour", "result": "102.5 ± 30.09"}, {"measurement": "Serum SGOT", "setting": "80 mg (n = 6), 24 hour", "result": "23.48 ± 2.88"}, {"measurement": "Serum SGPT", "setting": "80 mg (n = 6), 24 hour", "result": "26.2 ± 6.6"}, {"measurement": "Total serum bilirubin", "setting": "80 mg (n = 6), 24 hour", "result": "0.73 ± 0.24"}, {"measurement": "Serum Alkaline phosphatase", "setting": "80 mg (n = 6), Baseline", "result": "95.5 ± 26.65"}, {"measurement": "Serum SGOT", "setting": "80 mg (n = 6), Baseline", "result": "22.15 ± 6.3"}, {"measurement": "Serum SGPT", "setting": "80 mg (n = 6), Baseline", "result": "21.88 ± 10.0"}, {"measurement": "Total serum bilirubin", "setting": "80 mg (n = 6), Baseline", "result": "0.82 ± 0.24"}, {"measurement": "Serum Alkaline phosphatase", "setting": "80 mg (n = 6), Day 7", "result": "106.83 ± 37.12"}, {"measurement": "Serum SGOT", "setting": "80 mg (n = 6), Day 7", "result": "27.7 ± 6.1"}, {"measurement": "Serum SGPT", "setting": "80 mg (n = 6), Day 7", "result": "21.8 ± 3.7"}, {"measurement": "Total serum bilirubin", "setting": "80 mg (n = 6), Day 7", "result": "0.64 ± 0.23"}, {"measurement": "Serum Alkaline phosphatase", "setting": "160 mg (n = 6), 24 hour", "result": "212 ± 67"}, {"measurement": "Serum SGOT", "setting": "160 mg (n = 6), 24 hour", "result": "33.98 ± 9.69"}, {"measurement": "Serum SGPT", "setting": "160 mg (n = 6), 24 hour", "result": "39.43 ± 8.08"}, {"measurement": "Total serum bilirubin", "setting": "160 mg (n = 6), 24 hour", "result": "0.55 ± 0.07"}, {"measurement": "Serum Alkaline phosphatase", "setting": "160 mg (n = 6), Baseline", "result": "211.5 ± 68.65"}, {"measurement": "Serum SGOT", "setting": "160 mg (n = 6), Baseline", "result": "34.18 ± 7.89"}, {"measurement": "Serum SGPT", "setting": "160 mg (n = 6), Baseline", "result": "37.21 ± 4.16"}, {"measurement": "Total serum bilirubin", "setting": "160 mg (n = 6), Baseline", "result": "0.76 ± 0.39"}, {"measurement": "Serum Alkaline phosphatase", "setting": "160 mg (n = 6), Day 7", "result": "207.17 ± 61.03"}, {"measurement": "Serum SGOT", "setting": "160 mg (n = 6), Day 7", "result": "38.33 ± 8.91"}, {"measurement": "Serum SGPT", "setting": "160 mg (n = 6), Day 7", "result": "44.5 ± 11.64"}, {"measurement": "Total serum bilirubin", "setting": "160 mg (n = 6), Day 7", "result": "0.6 ± 0.06"}, {"measurement": "Serum Alkaline phosphatase", "setting": "320 mg (n = 6), 24 hour", "result": "222.5 ± 34.55"}, {"measurement": "Serum SGOT", "setting": "320 mg (n = 6), 24 hour", "result": "34.17 ± 7.76"}, {"measurement": "Serum SGPT", "setting": "320 mg (n = 6), 24 hour", "result": "37.33 ± 8.87"}, {"measurement": "Total serum bilirubin", "setting": "320 mg (n = 6), 24 hour", "result": "0.8 ± 0.4"}, {"measurement": "Serum Alkaline phosphatase", "setting": "320 mg (n = 6), Baseline", "result": "242 ± 45.24"}, {"measurement": "Serum SGOT", "setting": "320 mg (n = 6), Baseline", "result": "32.83 ± 5.15"}, {"measurement": "Serum SGPT", "setting": "320 mg (n = 6), Baseline", "result": "33.83 ± 9.09"}, {"measurement": "Total serum bilirubin", "setting": "320 mg (n = 6), Baseline", "result": "0.73 ± 0.52"}, {"measurement": "Serum Alkaline phosphatase", "setting": "320 mg (n = 6), Day 7", "result": "235.83 ± 32.49"}, {"measurement": "Serum SGOT", "setting": "320 mg (n = 6), Day 7", "result": "35 ± 8.53"}, {"measurement": "Serum SGPT", "setting": "320 mg (n = 6), Day 7", "result": "38.33 ± 13.84"}, {"measurement": "Total serum bilirubin", "setting": "320 mg (n = 6), Day 7", "result": "0.87 ± 0.59"}, {"measurement": "Serum Alkaline phosphatase", "setting": "400 mg (n = 6), 24 hour", "result": "251.67 ± 47.59"}, {"measurement": "Serum SGOT", "setting": "400 mg (n = 6), 24 hour", "result": "31.5 ± 4.5"}, {"measurement": "Serum SGPT", "setting": "400 mg (n = 6), 24 hour", "result": "35.17 ± 4.12"}, {"measurement": "Total serum bilirubin", "setting": "400 mg (n = 6), 24 hour", "result": "0.53 ± 0.05"}, {"measurement": "Serum Alkaline phosphatase", "setting": "400 mg (n = 6), Baseline", "result": "232.83 ± 42"}, {"measurement": "Serum SGOT", "setting": "400 mg (n = 6), Baseline", "result": "26.67 ± 6.62"}, {"measurement": "Serum SGPT", "setting": "400 mg (n = 6), Baseline", "result": "29 ± 5.44"}, {"measurement": "Total serum bilirubin", "setting": "400 mg (n = 6), Baseline", "result": "0.52 ± 0.04"}, {"measurement": "Serum Alkaline phosphatase", "setting": "400 mg (n = 6), Day 7", "result": "242.83 ± 34.82"}, {"measurement": "Serum SGOT", "setting": "400 mg (n = 6), Day 7", "result": "32.33 ± 8.87"}, {"measurement": "Serum SGPT", "setting": "400 mg (n = 6), Day 7", "result": "38 ± 12.95"}, {"measurement": "Total serum bilirubin", "setting": "400 mg (n = 6), Day 7", "result": "0.55 ± 0.08"}, {"measurement": "Serum Alkaline phosphatase", "setting": "500 mg (n = 6), 24 hour", "result": "313 ± 124.5"}, {"measurement": "Serum SGOT", "setting": "500 mg (n = 6), 24 hour", "result": "31.5 ± 6.02"}, {"measurement": "Serum SGPT", "setting": "500 mg (n = 6), 24 hour", "result": "34.83 ± 11.07"}, {"measurement": "Total serum bilirubin", "setting": "500 mg (n = 6), 24 hour", "result": "0.52 ± 0.04"}, {"measurement": "Serum Alkaline phosphatase", "setting": "500 mg (n = 6), Baseline", "result": "321.17 ± 151"}, {"measurement": "Serum SGOT", "setting": "500 mg (n = 6), Baseline", "result": "31.33 ± 8.76"}, {"measurement": "Serum SGPT", "setting": "500 mg (n = 6), Baseline", "result": "32.83 ± 11.5"}, {"measurement": "Total serum bilirubin", "setting": "500 mg (n = 6), Baseline", "result": "0.52 ± 0.04"}, {"measurement": "Serum Alkaline phosphatase", "setting": "500 mg (n = 6), Day 7", "result": "339.67 ± 184.25"}, {"measurement": "Serum SGOT", "setting": "500 mg (n = 6), Day 7", "result": "34 ± 6.00"}, {"measurement": "Serum SGPT", "setting": "500 mg (n = 6), Day 7", "result": "35.33 ± 10.56"}, {"measurement": "Total serum bilirubin", "setting": "500 mg (n = 6), Day 7", "result": "0.53 ± 0.05"}, {"measurement": "Serum Alkaline phosphatase", "setting": "600 mg (n = 6), 24 hour", "result": "275.83 ± 61.29"}, {"measurement": "Serum SGOT", "setting": "600 mg (n = 6), 24 hour", "result": "30.33 ± 6.74"}, {"measurement": "Serum SGPT", "setting": "600 mg (n = 6), 24 hour", "result": "30.5 ± 8.46"}, {"measurement": "Total serum bilirubin", "setting": "600 mg (n = 6), 24 hour", "result": "0.8 ± 0.59"}, {"measurement": "Serum Alkaline phosphatase", "setting": "600 mg (n = 6), Baseline", "result": "272.5 ± 66.71"}, {"measurement": "Serum SGOT", "setting": "600 mg (n = 6), Baseline", "result": "31.17 ± 6.3"}, {"measurement": "Serum SGPT", "setting": "600 mg (n = 6), Baseline", "result": "30 ± 7.16"}, {"measurement": "Total serum bilirubin", "setting": "600 mg (n = 6), Baseline", "result": "0.8 ± 0.54"}, {"measurement": "Serum Alkaline phosphatase", "setting": "600 mg (n = 6), Day 7", "result": "274 ± 75.17"}, {"measurement": "Serum SGOT", "setting": "600 mg (n = 6), Day 7", "result": "31.33 ± 5.78"}, {"measurement": "Serum SGPT", "setting": "600 mg (n = 6), Day 7", "result": "33.17 ± 10.53"}, {"measurement": "Total serum bilirubin", "setting": "600 mg (n = 6), Day 7", "result": "0.82 ± 0.59"}, {"measurement": "Serum Alkaline phosphatase", "setting": "700 mg (n = 2), 24 hour", "result": "254 ± 56.57"}, {"measurement": "Serum SGOT", "setting": "700 mg (n = 2), 24 hour", "result": "40 ± 4.24"}, {"measurement": "Serum SGPT", "setting": "700 mg (n = 2), 24 hour", "result": "46.5 ± 4.95"}, {"measurement": "Total serum bilirubin", "setting": "700 mg (n = 2), 24 hour", "result": "0.6 ± 0.14"}, {"measurement": "Serum Alkaline phosphatase", "setting": "700 mg (n = 2), Baseline", "result": "261.5 ± 50.2"}, {"measurement": "Serum SGOT", "setting": "700 mg (n = 2), Baseline", "result": "35.5 ± 0.71"}, {"measurement": "Serum SGPT", "setting": "700 mg (n = 2), Baseline", "result": "46 ± 5.66"}, {"measurement": "Total serum bilirubin", "setting": "700 mg (n = 2), Baseline", "result": "0.6 ± 0.14"}, {"measurement": "Serum Alkaline phosphatase", "setting": "700 mg (n = 2), Day 7", "result": "260.5 ± 44.55"}, {"measurement": "Serum SGOT", "setting": "700 mg (n = 2), Day 7", "result": "34.5 ± 0.71"}, {"measurement": "Serum SGPT", "setting": "700 mg (n = 2), Day 7", "result": "40 ± 11.31"}, {"measurement": "Total serum bilirubin", "setting": "700 mg (n = 2), Day 7", "result": "0.55 ± 0.07"}, {"measurement": "Serum sodium and serum potassium values vs normal physiological ranges", "setting": "all time points, all groups", "result": "None of the volunteers had values outside the normal physiological ranges"}, {"measurement": "Serum bilirubin, SGOT and SGPT, intergroup comparisons", "setting": "any time point of measurement, 80-700 mg and placebo", "result": "no significant difference"}]}
